As a reminder, the MIC is the lowest concentration found to suppress growth. A higher MIC goes with weaker potency. The term IC50 denotes the concentration at which inhibition is half-maximal.

Values after ≈ are worked out from the molar mass of the structure shown.

Assay [1] concerns Candida albicans. Kind of assay: Antifungal activity against Candida albicans after 24 hrs by agar dilution method. The class given is functional.
For assay [2], the system named is P388. As to the kind of experiment: Cytotoxicity against mouse P388 cells after 24 hrs by SRB assay. The class given is functional, cell-based. To be noted: P388, 24 h. For orientation: In SRB staining, fixed cells bind dye roughly in proportion to their protein.
Assay [3] has as its system Radical scavenging activity. Kind of assay: Antioxidant activity assessed as DPPH free radical scavenging activity after 30 mins. The class given is functional. For orientation: Loss of DPPH colour is used to gauge radical scavenging.
The test system of assay [4] is Escherichia coli. Kind of assay: Antibacterial activity against Escherichia coli after 24 hrs by agar dilution method. The assay is classed as functional. Background: In agar dilution the substance is mixed into plates at graded concentrations.
For assay [5], the system named is Bacillus subtilis. As to the kind of experiment: Antibacterial activity against Bacillus subtilis after 24 hrs by agar dilution method. The class given is functional.
Assay [6] concerns HL-60. Kind of assay: Cytotoxicity against human HL60 cells after 24 hrs by SRB assay. The class given is functional, cell-based. To be noted: HL-60, 24 h.
For assay [7], the system named is A549. As to the kind of experiment: Cytotoxicity against human A549 cells after 72 hrs by MTT assay. The class given is functional, cell-based. The settings on record: A549, 72 h.
For assay [8], the system named is Bel-7402. As to the kind of experiment: Cytotoxicity against human Bel7402 cells after 72 hrs by MTT assay. The class given is functional, cell-based. To be noted: Bel-7402, 72 h.

Turning to `C=C(CCCCCCCCC)C(=O)CC/C=C/[C@@H](O)[C@H](CO[C@@H]1O[C@H](CO)[C@@H](O)[C@H](O)[C@H]1O)NC(=O)[C@H](O)/C=C/CCCCCCCCCCCCCC` [ALTERNAROSIDE A], the MIC worked out at 260 µM (≈ 200 µg/mL) in assay [1], 130 µM (≈ 99.9 µg/mL) in assay [4] and 130 µM (≈ 99.9 µg/mL) in assay [5]. For the same molecule, the IC50 in assay [2] is above 100 µM; in assay [3] it was above 500 µM; in assay [6], above 100 µM; in assay [7], above 100 µM; in assay [8], above 100 µM.

In the case of `CCCCCCCCCCCCCC/C=C/[C@@H](O)C(=O)N[C@@H](CO[C@@H]1O[C@H](CO)[C@@H](O)[C@H](O)[C@H]1O)[C@H](O)/C=C/CC/C=C(\C)CCCCCCCC` [ALTERNAROSIDE B], the MIC in assay [1] was 270 µM (≈ 200 µg/mL); in assay [4], 135 µM (≈ 99.9 µg/mL); in assay [5], 68 µM (≈ 50.3 µg/mL). Also, the half-inhibitory concentration (IC50) in assay [2] is above 100 µM; in assay [3], above 500 µM; in assay [6], above 100 µM; in assay [7], above 100 µM; in assay [8], above 100 µM.

As to `CCCCCCCCC/C=C\CC/C=C/[C@@H](O)[C@H](CO[C@@H]1O[C@H](CO)[C@@H](O)[C@H](O)[C@H]1O)NC(=O)[C@H](O)/C=C/CCCCCCCCCCCCCC` [ALTERNAROSIDE C], the MIC in assay [1] is 270 µM (≈ 200 µg/mL); in assay [4], 135 µM (≈ 99.9 µg/mL); in assay [5], 135 µM (≈ 99.9 µg/mL). For the same molecule, the IC50 was above 100 µM in assay [2]; above 500 µM in assay [3]; above 100 µM in assay [6]; above 100 µM in assay [7]; above 100 µM in assay [8].

With `O=C1O[C@H]([C@@H](O)CO)C(O)=C1O` [ASCORBIC ACID], the IC50 in assay [3] was found to be 22 µM.

In turn, `O=C(O)c1cn(C2CC2)c2cc(N3CCNCC3)c(F)cc2c1=O` [CIPROFLOXACIN LACTATE] gave an MIC in assay [5] of 7.42 µM.

Turning to `COc1cc([C@@H]2c3cc4c(cc3[C@@H](O[C@@H]3O[C@@H]5CO[C@@H](C)O[C@H]5[C@H](O)[C@H]3O)[C@H]3COC(=O)[C@H]23)OCO4)cc(OC)c1O` [ETOPOSIDE], the IC50 in assay [2] came to 0.05 µM; in assay [6], 0.042 µM; in assay [7] it was 0.63 µM; in assay [8], 1.03 µM.

`OC(Cn1cncn1)(Cn1cncn1)c1ccc(F)cc1F` [FLUCONAZOLE] came in with an MIC in assay [1] of 5.1 µM (≈ 1.56 µg/mL).

For the origin of these results see ChEMBL document CHEMBL1154232, “Cerebrosides of the halotolerant fungus Alternaria raphani isolated from a sea salt field” (J Nat Prod, 2009).
